Source: ChEMBL document CHEMBL1131101, “2-, 5-, and 6-Halo-3-(2(S)-azetidinylmethoxy)pyridines: synthesis, affinity for nicotinic acetylcholine receptors, and molecular modeling” (J Med Chem, 1998)

What follows are compounds tested against Neuronal acetylcholine receptor; alpha4/beta2 (Rattus norvegicus, UniProt P09483+P12390) (assay: Binding affinity for alpha4 beta-2 nAChR using [3H]epibatidine in rat brain).
Assay type: tissue-based

Neuronal acetylcholine receptor; alpha4/beta2, sequence (P09483 whole entry): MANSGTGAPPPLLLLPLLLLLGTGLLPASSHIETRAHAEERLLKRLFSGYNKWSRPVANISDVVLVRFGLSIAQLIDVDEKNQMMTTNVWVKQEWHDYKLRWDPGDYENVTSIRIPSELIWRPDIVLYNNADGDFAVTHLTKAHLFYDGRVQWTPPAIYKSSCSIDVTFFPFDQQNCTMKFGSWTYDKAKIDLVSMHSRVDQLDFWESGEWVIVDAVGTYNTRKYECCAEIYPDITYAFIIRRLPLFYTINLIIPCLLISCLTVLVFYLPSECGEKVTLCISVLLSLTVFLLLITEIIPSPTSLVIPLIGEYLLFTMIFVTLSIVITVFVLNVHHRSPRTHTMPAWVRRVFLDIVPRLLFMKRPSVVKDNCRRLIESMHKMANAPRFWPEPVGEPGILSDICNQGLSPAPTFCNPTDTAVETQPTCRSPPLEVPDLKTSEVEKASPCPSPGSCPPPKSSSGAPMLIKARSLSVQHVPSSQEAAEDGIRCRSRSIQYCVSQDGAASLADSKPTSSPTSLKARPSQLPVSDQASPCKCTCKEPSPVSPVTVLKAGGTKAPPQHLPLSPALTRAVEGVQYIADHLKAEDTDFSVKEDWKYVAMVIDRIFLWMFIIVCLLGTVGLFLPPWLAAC
Neuronal acetylcholine receptor; alpha4/beta2, sequence (P12390 whole entry): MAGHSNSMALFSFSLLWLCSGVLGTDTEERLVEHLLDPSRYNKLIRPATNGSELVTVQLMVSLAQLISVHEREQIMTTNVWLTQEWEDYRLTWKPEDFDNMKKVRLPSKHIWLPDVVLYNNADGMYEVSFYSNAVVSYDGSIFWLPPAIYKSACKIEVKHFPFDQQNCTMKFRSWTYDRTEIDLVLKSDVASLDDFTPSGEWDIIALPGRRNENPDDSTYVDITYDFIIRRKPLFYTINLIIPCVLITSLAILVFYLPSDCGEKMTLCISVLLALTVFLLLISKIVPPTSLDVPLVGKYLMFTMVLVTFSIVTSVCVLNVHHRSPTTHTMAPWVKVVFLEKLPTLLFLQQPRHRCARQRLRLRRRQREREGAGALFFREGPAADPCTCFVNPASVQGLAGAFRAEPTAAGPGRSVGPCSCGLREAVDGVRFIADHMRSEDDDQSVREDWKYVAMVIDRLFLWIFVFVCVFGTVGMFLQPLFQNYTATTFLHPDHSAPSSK

Row | Compound | Ki [nM]
1 | Ic1ncccc1OC[C@@H]1CCN1 | > 0.001
2 | Ic1ccc(OC[C@@H]2CCN2)cn1 | 0.15
3 | Brc1ncccc1OC[C@@H]1CCN1 | 0.24
4 | Fc1ccc(OC[C@@H]2CCN2)cn1 | 0.025
5 | c1cncc(OC[C@@H]2CCN2)c1 | 0.017
6 | Clc1ncccc1OC[C@@H]1CCN1 | 0.0084
7 | Clc1cncc(OC[C@@H]2CCN2)c1 | 0.03
8 | Fc1cncc(OC[C@@H]2CCN2)c1 | 0.025
9 | Brc1cncc(OC[C@@H]2CCN2)c1 | 0.021
